Data on one compound can be found in patent publication US11235020B2, “Methods and compositions for inhibiting glyoxalase 1 (GLO1)” (priority 2013, dated 2022).

Data set [1] has as its system glutamate receptors. The data set is described as follows: Glutamatergic currents in CGN. The data set is classed as cell-based, rat. Particulars: 10 μM MG. The source says: Ligand-gated currents: Ligand-gated currents were studied in voltage-clamp mode by application of reagents to cells held at −50 mV. GABAergic and glycinergic currents were activated by application of GABA and glycine and antagonized by application of SR and strychnine, respectively (Kaneda 1995). Glutamatergic currents were activated by 1-glutamate and antagonized by CNQX and AP-5 (Wyllie 1994).

Data set [2] relates to picrotoxin-induced seizures. The data set can be described thus: Picrotoxin-induced seizures, behavioral scoring. The data set is classed as in vivo, mouse. The note with it: MG 50 and 200 mg/kg pre-treatment, picrotoxin 5 mg/kg. The procedure:
Drug administration: All experiments with MG utilized crude MG obtained from Sigma-Aldrich. For pre-treatment, MG (50 or 200 mg/kg) or vehicle (0.9% saline) was administered by i.p. injection 10 minutes before the seizure-inducing agent. For treatment after seizure onset, MG (200 mg/kg) or vehicle (0.9% saline) was administered by i.p. injection ten minutes after seizure onset. For GLO1 inhibition, BrBzGCp2 (50 mg/kg) or vehicle (8% DMSO and 18% Tween-80) was administered by i.p. injection two hours before seizure induction.
Seizure induction: For picrotoxin-induced seizures, 5 mg/kg of picrotoxin in 0.9% saline was administered by i.p. injection. Seizures were scored for one hour after picrotoxin administration. For pilocarpine-induced seizures, mice were pre-treated with atropine (5 mg/kg in 0.9% saline) by i.p. injection in order to reduce the peripheral effects of pilocarpine. Thirty minutes after atropine administration, pilocarpine was administered by i.p. injection. B6 mice were treated with 250 mg/kg pilocarpine in 0.9% saline, and FVB mice (WT and Tg) were treated with 300 mg/kg pilocarpine in 0.9% saline. Seizures were scored for 90 minutes after pilocarpine administration.
Seizure scoring: Picrotoxin-induced seizures were scored as the presence of generalized convulsions as well as the latency to and duration of generalized convulsions.

The test system of data set [3] is GABAA receptors in hippocampal neurons. The data set can be described thus: Whole-cell patch clamp in hippocampal neurons (HN). Format: cell-based, rat. The procedure: Reagents: All reagents were obtained from Sigma-Aldrich.
Neurons were maintained in neurobasal medium with B27 supplement and glutamax in a humidified atmosphere with 5% CO2 at 37° C.
Filter and sampling frequencies were 5 and 25 kHz, respectively, for voltage-clamp experiments and 1 and 10 kHz, respectively, for current-clamp recording. Experiments were performed at 32° C. using a feedback-controlled heated perfusion system (Warner Instruments). Vm, ligand-gated currents, and potassium channel currents were studied in a bath solution containing 1 mM CaCl2, 1 mM MgCl2, 4 mM KCl, 140 mM NaCl, 5 mM glucose, and 10 mM HEPES (pH 7.4). […] Electrodes were coated with Sigmacote (Sigma) prior to use.
Ligand-gated currents: Ligand-gated currents were studied in voltage-clamp mode by application of reagents to cells held at −50 mV.
On the technique in general: The patch-clamp technique gives a direct electrical read-out from membranes.

Data set [4] concerns depression-like behavior in mice. Particulars: intracerebroventricular MG for six days (Hambsch 2010); cited from earlier work.
Data set [5] concerns the target T1, GABAB receptors (Rattus norvegicus, UniProt Q9Z0U4).
T1 construct: endogenous in cells; host or cells: primary rat cerebellar granule neurons
The data set is described as follows: GABAB receptor activation (IKIR) in CGN. Format: cell-based. Particulars: 10 μM MG in the presence of SR. From the text: (§1) Potassium currents: Voltage-gated potassium channel currents were evoked using a previously reported protocol with modifications (Plant 2006). The whole voltage-gated potassium current, IK+, and the delayed rectifier current, IDR were isolated with two voltage protocols. First, IK+ was evoked by 250 ms test pulses to between −80 and 90 mV from −80 mV following a 250 ms pre-pulse to −140 mV. Then, the protocol was repeated using a −50 mV pre-pulse to inactivate IK+ and isolate IDR. The inactivating component of the current, IKA, was isolated by subtracting IDR from IK+ recorded in the same cells. The standing outward potassium leak current, IKso, and the inwardly rectifying potassium current, IKIR, were studied as previously reported with modifications (Plant 2002). Cells were held at −20 mV, and the membrane potential was ramped to −120 mV over a period of 100 ms before returning to −20 mV. Ramp hyperpolarizations were repeated every 20 seconds.

Data set [6] concerns neuronal cell death. The note with it: literature (Di Loreto 2008; Di Loreto 2004; Li 2010); cited from earlier work.
The test system of data set [7] is picrotoxin-induced seizures. The data set is described as follows: Picrotoxin-induced seizures assessed by EEG. Format: in vivo, mouse. Particulars: MG 200 mg/kg pre-treatment, picrotoxin 7 mg/kg. The method, then:
FIGS. 37A-37D: Exogenous MG attenuates picrotoxin-induced seizures as assessed by EEG. B6 mice were pre-treated with vehicle or MG (200 mg/kg) prior to seizure induction with picrotoxin (7 mg/kg). […] P=0.036 by Mann-Whitney U test. […] P=0.028 by Mann-Whitney U test. […] P=0.036 by Mann-Whitney U test. […] P=0.014 by Mann-Whitney U test. […] P=0.028 by Mann-Whitney U test. FIG. 37D, Representative EEG recordings of a mouse during baseline period (prior to any injections), after acute saline and picrotoxin (7 mg/kg) injections, or after acute MG (200 mg/kg) and picrotoxin (7 mg/kg) injections. […] Seizures are associated with high muscle activity, as indicated by the electromyography (EMG) trace. […] EEG traces correspond to four differential recordings from each of four subdural electrodes (EEG1 and EEG2 (right cortical hemisphere), EEG3 and EEG4 (left cortical hemisphere)). EMG activity was recorded using two fine wires placed into the neck muscle. Calibration mark: 500 μV/mm and 1 second. Data are mean±SEM. n=4 vehicle, 5 MG (200 mg/kg). *P<0.05 versus vehicle-treated group as determined by Mann-Whitney U tests.
In order to validate these behavioral data, the inventors assessed seizure activity by EEG analysis of mice treated with 7 mg/kg picrotoxin. […] Thus, MG attenuates seizures induced by GABAA receptor blockade at both the behavioral and EEG level.

For data set [8], the system named is CD-1 mice. The data set can be described thus: Accelerating rotarod. The data set is classed as in vivo, mouse. Particulars: MG 300 mg/kg. The method, then:
On day 1, mice were trained on the rotarod for five consecutive trials. […] The latency to fall and the rotarod speed at the time of the fall were recorded.
On the technique in general: The rotarod test checks motor coordination on a turning rod.

The test system of data set [9] is mice. The data set is described as follows: Observation of sedation or gross deficits in treated mice. The note with it: MG 300 mg/kg, WT B6 mice, data not shown.
Data set [10] relates to potassium currents. The data set can be described thus: Potassium currents in CGN. Format: cell-based, rat. Particulars: 10 μM MG.
Source text: as §1

T1 sequence (Q9Z0U4 17-960 limits assumed): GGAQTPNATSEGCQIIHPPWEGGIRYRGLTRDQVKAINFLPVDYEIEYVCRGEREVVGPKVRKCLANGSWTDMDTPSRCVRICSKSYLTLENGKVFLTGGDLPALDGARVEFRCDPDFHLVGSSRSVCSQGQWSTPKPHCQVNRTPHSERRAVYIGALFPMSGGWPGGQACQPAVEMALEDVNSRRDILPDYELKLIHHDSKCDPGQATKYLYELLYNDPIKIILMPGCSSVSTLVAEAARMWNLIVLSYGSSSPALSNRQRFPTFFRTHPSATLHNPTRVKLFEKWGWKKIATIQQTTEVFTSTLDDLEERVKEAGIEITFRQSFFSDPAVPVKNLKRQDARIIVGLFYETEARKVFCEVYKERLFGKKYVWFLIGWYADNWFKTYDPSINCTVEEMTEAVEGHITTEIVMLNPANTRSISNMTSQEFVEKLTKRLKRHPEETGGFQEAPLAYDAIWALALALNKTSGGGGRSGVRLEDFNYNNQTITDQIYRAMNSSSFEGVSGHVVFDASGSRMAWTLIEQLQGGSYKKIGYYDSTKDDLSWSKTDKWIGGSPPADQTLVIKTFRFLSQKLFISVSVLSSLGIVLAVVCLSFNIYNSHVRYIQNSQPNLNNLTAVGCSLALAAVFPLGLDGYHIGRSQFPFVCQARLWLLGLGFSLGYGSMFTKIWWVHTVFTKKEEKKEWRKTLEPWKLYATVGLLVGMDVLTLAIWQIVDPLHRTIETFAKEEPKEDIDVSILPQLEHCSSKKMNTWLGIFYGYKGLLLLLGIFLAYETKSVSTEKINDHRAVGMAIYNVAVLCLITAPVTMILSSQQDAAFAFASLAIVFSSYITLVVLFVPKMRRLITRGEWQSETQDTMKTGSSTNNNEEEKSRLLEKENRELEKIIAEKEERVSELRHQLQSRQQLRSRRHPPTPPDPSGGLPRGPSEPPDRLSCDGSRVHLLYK
T1 sequence (O88871 41-940 partner): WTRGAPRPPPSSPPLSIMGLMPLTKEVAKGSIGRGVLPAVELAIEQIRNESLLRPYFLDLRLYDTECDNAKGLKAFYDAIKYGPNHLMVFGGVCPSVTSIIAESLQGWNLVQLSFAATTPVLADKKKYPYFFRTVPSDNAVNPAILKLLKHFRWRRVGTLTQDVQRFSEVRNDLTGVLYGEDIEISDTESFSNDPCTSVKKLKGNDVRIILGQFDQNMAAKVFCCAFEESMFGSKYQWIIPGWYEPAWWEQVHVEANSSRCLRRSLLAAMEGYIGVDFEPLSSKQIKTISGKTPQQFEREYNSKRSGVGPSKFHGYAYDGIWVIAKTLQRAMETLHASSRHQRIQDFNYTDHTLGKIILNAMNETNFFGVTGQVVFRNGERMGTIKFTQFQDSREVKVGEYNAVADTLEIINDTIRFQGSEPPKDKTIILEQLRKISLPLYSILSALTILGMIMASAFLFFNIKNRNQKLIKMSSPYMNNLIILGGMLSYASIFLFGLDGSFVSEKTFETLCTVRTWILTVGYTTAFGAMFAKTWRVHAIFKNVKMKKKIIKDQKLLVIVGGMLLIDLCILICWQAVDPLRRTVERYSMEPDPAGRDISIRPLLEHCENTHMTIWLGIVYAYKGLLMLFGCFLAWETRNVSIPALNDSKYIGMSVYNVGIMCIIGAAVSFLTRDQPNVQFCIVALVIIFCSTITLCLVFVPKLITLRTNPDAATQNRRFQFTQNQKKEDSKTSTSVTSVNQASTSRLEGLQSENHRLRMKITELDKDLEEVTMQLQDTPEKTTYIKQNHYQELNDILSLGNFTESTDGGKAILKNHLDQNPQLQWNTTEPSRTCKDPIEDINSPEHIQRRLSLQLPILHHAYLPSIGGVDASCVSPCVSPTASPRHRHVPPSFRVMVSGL

Consider `CC(=O)C=O` [MG, methylglyoxal], for which the “activation of glutamate receptors” value in data set [1] is listed as “did not activate”. In data set [2], the “duration of generalized convulsions” value was “reduced seizure duration” and the “percentage of mice undergoing generalized convulsions” value is on record as “reduced the percentage of mice undergoing generalized convulsions”. Further, the “latency to first generalized convulsion (seizure onset)” value in data set [2] (dose-dependent) is “delayed seizure onset”. Moreover, the “peak response versus GABA in hippocampal neurons” value in data set [3] was “approximately one-third of those evoked by GABA”. For the same compound, in data set [4], the “immobility in the TST” value is “reduced immobility in the TST”. Moreover, in [5], the “activation of GABAB receptors” value was “did not activate GABAB receptors”. Further, the “MG concentrations that induce neuronal cell death in vitro” value in [6] was 100-1,000 μM. For the same compound, in [7], the “duration of EEG-confirmed seizures” value was “reduced seizure duration”, the “latency to first EEG-confirmed seizure” value is “delayed seizure onset” and the “number of EEG-confirmed seizures” value was “reduced the number of seizures”. In data set [8], the “speed at fall from accelerating rotarod (ataxia)” value was “fell from an accelerating rotarod at slower speeds than vehicle-treated mice”. Besides, the sedation entry in data set [9] was “caused sedation”. Also, in data set [10], the “effect on potassium currents” value is given as “did not affect”.
